Data published in ChEMBL document CHEMBL1201862, “PubChem BioAssay data set” (2004).
The source made the active and inactive calls.

Assays:
[1] = molecular target: Sphingosine 1-phosphate receptor 4 (Homo sapiens, UniProt O95977); assay: Fluorescence dose response cell-based high throughput screening assay for agonists of the Sphingosine 1-Phosphate Receptor 4 (S1P4). [Related pubchem assays: 1509 (Primary screen.), 1523 (Confirmation screen in triplicates.)]; assay type: functional
Estrogen receptor = molecular target: T1, Estrogen receptor (Homo sapiens, UniProt P03372);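 also: potency for inhibiting coactivator peptide recruitment to the receptor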
T1 sequence (P03372 whole entry): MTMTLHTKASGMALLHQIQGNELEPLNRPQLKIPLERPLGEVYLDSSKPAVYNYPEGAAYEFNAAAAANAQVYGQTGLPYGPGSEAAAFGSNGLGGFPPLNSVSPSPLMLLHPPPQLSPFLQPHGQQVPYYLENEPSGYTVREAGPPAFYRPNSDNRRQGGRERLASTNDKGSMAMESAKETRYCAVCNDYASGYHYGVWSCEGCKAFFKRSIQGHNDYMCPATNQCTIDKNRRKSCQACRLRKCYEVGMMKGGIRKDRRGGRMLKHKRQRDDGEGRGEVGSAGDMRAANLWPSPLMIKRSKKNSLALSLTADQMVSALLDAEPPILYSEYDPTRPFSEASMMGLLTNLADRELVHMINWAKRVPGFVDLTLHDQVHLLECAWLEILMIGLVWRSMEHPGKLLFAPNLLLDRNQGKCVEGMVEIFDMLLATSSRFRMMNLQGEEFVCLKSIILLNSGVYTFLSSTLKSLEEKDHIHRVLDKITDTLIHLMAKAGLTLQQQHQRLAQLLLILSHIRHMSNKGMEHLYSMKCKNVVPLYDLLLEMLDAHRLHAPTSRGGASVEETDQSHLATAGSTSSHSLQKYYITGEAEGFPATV

Estrogen receptor beta [2] = molecular target: T2, Estrogen receptor beta (Homo sapiens, UniProt Q92731); assay: blockers of SRC-3 recruitment to ERβ – biochemical, ELISA, streptavidin-HRP readout, orthogonal assay, confirmation (AID 1060)
T2 sequence (Q92731 whole entry): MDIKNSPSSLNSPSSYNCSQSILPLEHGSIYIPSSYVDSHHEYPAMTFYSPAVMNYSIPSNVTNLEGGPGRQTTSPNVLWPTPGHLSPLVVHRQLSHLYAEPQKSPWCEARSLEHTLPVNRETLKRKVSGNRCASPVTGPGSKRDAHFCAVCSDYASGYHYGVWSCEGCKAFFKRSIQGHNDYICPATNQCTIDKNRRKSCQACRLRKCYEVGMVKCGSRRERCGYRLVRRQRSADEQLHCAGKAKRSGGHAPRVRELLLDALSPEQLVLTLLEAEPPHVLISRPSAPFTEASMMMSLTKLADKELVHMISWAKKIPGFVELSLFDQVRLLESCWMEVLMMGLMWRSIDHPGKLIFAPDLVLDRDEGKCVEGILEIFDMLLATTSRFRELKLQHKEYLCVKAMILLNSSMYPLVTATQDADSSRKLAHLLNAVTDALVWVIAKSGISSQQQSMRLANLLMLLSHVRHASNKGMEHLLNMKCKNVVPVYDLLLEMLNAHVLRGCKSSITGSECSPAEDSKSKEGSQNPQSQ

[3] = molecular target: Sphingosine 1-phosphate receptor 1 (Homo sapiens, UniProt P21453); assay: Fluorescence-based counterscreen assay for S1P4 agonists: Cell-based dose response high throughput screening assay to identify agonists of the Sphingosine 1-Phosphate Receptor 1 (S1P1). [Related pubchem assays (depositor defined):AID1509, AID1523, AID1801, AID463107, AID463118, AID463119, AID463122, AID463123, AID463129, AID463225, AID504400, AID504460]; assay type: functional
Sphingosine 1-phosphate receptor 1, sequence (P21453 whole entry): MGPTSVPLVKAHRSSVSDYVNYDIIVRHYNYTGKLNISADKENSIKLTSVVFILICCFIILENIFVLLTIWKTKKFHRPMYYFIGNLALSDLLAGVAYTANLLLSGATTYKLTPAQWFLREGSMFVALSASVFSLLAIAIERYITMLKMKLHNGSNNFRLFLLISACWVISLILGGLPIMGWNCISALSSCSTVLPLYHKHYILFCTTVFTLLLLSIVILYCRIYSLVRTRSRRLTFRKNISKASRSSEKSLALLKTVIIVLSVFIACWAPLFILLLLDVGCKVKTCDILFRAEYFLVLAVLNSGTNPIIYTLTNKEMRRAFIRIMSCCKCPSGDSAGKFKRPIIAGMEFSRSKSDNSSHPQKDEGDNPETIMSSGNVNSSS

[4] = molecular target: T3, Sphingosine 1-phosphate receptor 2 (Homo sapiens, UniProt O95136); assay: Dose Response Cell Based Assay for Agonists of the S1P2 Receptor. [Related pubchem assays: 729, 736, 843 ]; assay type: functional
T3 sequence (O95136 whole entry): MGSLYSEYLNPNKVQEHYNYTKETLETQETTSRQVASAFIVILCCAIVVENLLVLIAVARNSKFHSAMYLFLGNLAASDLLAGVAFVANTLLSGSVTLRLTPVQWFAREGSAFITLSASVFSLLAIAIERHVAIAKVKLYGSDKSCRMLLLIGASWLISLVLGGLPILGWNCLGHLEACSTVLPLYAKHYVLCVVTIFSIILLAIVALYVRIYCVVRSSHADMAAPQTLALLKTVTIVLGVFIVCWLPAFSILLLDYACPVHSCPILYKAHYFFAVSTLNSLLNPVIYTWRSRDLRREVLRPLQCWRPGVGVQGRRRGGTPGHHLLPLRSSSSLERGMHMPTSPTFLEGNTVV

Estrogen receptor beta [5] = molecular target: T2, Estrogen receptor beta
[6] = Luminescence Cell-Based Dose Response to Identify Activators of 5'UTR Stem-Loop Driven Prion Protein mRNA Translation in H4-C Neuroglioblastoma Cells. [Related pubchem assays: 1829 (Project Summary), 1814 (Primary HTS)]; assay type: functional
[7] = Luminescence Cell-Based Dose Confirmation to Identify Activators of 5'UTR Stem-Loop Driven Alpha-Synuclein mRNA Translation in H4 Neuroglioblastoma Cells. [Related pubchem assays: 1829 (Project Summary), 1814 (Primary HTS)]; assay type: functional
[8] = Luminescence Cell-Based Dose Response HTS to Identify Activators of Luciferase Translation or Activity in H4 […] Cells. [Related pubchem assays: 1829 (Project Summary), 1814 (Primary HTS)]; assay type: functional
H4 = assay: Luminescence Cell-Based Dose Response HTS to Identify Activators of 5'UTR Stem-Loop Driven Prion Protein mRNA Translation in H4 Neuroglioblastoma Cells. [Related pubchem assays: 1829 (Project Summary), 1814 (Primary HTS)]; assay type: functional; details: Homo sapiens
[9] = Luminescence Cell-Based Dose Response to Identify Activators of Luciferase Translation or Activity in H4-C Neuroglioblastoma Cells. [Related pubchem assays: 1829 (Project Summary), 1814 (Primary HTS)]; assay type: functional
[10] = molecular target: Mitogen-activated protein kinase 10 (Homo sapiens, UniProt P53779); assay: Dose response biochemical screening assay for inhibitors of c-Jun N-Terminal Kinase 3 (JNK3). [Related pubchem assays: 746 ]
Mitogen-activated protein kinase 10, sequence (P53779 whole entry): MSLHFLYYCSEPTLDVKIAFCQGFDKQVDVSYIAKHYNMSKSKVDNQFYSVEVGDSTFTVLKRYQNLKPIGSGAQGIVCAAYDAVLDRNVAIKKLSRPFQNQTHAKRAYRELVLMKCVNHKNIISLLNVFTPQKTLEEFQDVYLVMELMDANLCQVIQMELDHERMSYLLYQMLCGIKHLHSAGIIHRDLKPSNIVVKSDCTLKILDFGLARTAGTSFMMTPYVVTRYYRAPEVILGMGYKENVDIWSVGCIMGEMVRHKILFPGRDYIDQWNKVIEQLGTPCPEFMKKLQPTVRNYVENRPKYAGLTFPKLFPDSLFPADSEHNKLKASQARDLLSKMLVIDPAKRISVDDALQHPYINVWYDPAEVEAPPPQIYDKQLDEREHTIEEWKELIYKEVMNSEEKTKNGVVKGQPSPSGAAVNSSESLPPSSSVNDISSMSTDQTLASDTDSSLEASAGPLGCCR

[11] = molecular target: T3, Sphingosine 1-phosphate receptor 2; assay: Dose Response Cell Based Assay for Antagonists of the S1P2 Receptor. [Related pubchem assays: 856, 736 ]; assay type: functional
Streptokinase A = molecular target: T4, Streptokinase A (Streptococcus pyogenes serotype M1, UniProt P10520); assay: viability-normalized secreted streptokinase activity reduction – plasminogen activation absorbance, OD405, dose response (AID 1914); assay type: functional, Streptococcus pyogenes M1 GAS;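 also: secreted streptokinase activity via plasminogen activation per viability signal from cell pellet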
T4 sequence (P10520 whole entry): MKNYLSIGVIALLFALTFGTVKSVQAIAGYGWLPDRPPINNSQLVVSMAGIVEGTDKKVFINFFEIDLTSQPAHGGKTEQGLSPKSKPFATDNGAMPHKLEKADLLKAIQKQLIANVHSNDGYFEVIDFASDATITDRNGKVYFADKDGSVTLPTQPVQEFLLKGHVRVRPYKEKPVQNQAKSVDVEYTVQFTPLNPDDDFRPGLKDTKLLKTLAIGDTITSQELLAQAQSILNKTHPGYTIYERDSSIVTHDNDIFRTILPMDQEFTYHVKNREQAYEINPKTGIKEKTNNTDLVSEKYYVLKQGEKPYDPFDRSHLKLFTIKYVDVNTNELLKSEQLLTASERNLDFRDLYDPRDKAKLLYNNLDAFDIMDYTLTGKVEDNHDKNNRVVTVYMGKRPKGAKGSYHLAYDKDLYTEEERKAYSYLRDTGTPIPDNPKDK

[12] = test system: Streptococcus sp. 'group A'; assay: Streptococcus pyogenes SK(-)GAS viability under kanamycin – luminescence, BacTiterGlo, confirmation, counter-screen for streptokinase expression inhibitor project, dose response (AID 1900); assay type: functional, organism-based
Streptococcus = assay: GAS UMAA2166 growth inhibition – luminescence, BacTiterGlo, counter-screen for streptokinase expression inhibitor project, dose response (AID 1915); assay type: functional, organism-based;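 also: potency for reduction of bacterial viability or growth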
[13] = viability loss in Vero cells – cytotoxicity control for Vif-APOBEC3G degradation inhibitor project, dose response (AID 1117358); assay type: functional; details: Vero
[14] = molecular target: T5, RNA-binding protein pos-1 (Caenorhabditis elegans, UniProt G5EF15); assay: disruptors of C. elegans POS-1 RNA interaction – biochemical, fluorescence polarization, dose response (AID 1964);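 also: purified POS-1 fused to maltose binding protein made in E. coli; potency of compounds blocking POS-1 binding to fluorescent RNA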
T5 sequence (G5EF15 whole entry): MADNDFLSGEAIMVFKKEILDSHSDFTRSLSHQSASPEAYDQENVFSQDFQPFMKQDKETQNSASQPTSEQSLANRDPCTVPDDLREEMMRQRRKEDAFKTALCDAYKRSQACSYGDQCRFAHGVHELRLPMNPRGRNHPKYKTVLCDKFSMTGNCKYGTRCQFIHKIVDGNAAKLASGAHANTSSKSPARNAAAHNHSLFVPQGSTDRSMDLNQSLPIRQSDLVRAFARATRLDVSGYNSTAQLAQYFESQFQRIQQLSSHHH

[15] = molecular target: T6, Zinc finger protein mex-5 (Caenorhabditis elegans, UniProt Q9XUB2); assay: potency of MEX-5 RNA-binding blockers – biochemical, C. elegans, fluorescence polarization, dose response (AID 1960)
T6 sequence (Q9XUB2 whole entry): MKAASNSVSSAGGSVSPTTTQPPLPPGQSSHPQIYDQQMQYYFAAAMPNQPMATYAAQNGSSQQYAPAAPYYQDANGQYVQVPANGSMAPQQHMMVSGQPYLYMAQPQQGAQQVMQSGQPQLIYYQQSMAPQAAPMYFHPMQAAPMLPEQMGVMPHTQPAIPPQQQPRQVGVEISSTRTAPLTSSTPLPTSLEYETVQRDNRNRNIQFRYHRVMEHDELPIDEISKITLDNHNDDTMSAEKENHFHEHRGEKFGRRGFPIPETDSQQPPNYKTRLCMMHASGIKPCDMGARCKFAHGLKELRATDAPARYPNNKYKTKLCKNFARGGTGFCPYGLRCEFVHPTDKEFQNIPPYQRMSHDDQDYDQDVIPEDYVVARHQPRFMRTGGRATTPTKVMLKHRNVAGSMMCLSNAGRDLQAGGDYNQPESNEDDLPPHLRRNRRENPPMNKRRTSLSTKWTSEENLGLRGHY

Danio rerio = assay: In Vivo Angiogenesis Dose-Response Confirmation. [Related pubchem assays: 732 (Assay preceding this confirmatory assay.)]; assay type: functional, organism-based
[16] = M. tuberculosis growth inhibition, HTS (AID 449762); assay type: functional
[17] = molecular target: T7, Mannose-6-phosphate isomerase (Homo sapiens, UniProt P34949); assay: MPI inhibition at elevated mannose 6-phosphate – biochemical, fluorescence intensity, high mannose 6-phosphate, primary screen (AID 1220)
T7 sequence (P34949 whole entry): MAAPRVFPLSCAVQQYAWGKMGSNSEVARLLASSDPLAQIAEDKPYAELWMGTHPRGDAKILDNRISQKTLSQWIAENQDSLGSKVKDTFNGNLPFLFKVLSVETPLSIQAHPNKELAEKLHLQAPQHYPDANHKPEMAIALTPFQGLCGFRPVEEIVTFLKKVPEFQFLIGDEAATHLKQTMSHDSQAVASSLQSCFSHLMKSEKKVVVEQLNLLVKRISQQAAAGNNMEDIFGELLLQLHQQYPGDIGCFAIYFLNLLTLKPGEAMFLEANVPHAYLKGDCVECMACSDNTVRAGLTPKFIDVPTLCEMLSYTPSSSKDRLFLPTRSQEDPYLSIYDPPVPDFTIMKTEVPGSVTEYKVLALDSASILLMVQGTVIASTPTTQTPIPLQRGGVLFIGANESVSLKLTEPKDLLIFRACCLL

Galanin receptor type 2 = Galanin receptor type 2 (Homo sapiens, UniProt O43603); assay: Dose Response cell-based high-throughput screening assay to identify agonists of galanin receptor 2 (GALR2). [Related pubchem assays: 864 ]; assay type: functional
Galanin receptor type 2, sequence (O43603 whole entry): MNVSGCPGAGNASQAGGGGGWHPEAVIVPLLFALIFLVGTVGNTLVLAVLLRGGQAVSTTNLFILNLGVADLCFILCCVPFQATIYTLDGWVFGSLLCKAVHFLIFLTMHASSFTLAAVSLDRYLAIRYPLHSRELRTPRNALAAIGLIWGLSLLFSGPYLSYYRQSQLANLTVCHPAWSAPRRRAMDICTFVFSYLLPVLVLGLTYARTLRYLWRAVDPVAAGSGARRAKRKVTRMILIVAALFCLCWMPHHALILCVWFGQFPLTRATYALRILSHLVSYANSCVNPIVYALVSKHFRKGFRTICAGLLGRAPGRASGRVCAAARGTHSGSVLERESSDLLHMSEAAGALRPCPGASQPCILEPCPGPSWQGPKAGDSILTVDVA

INS1 = assay: INS-1E survival protection against cytokine death – cell-based, luminescence, retest, dose response (AID 449756); assay type: functional; details: Rattus norvegicus;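 also: cell death triggered by IL-1 beta plus TNF-alpha plus IFN-gamma mixture; protective hits raise ATP signal compared with cytokine alone wells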
[18] = molecular target: Heat shock protein HSP 90-alpha (Homo sapiens, UniProt P07900); assay type: functional, organism-based
[19] = viability of PTEN-deleted HCT116 cells – cell-based, HCT116 PTEN knockout, dose response (AID 1047); assay type: functional;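 also: HCT116 colon tumor cells with PTEN knocked out; cells exposed to compound for 60 hours before readout; potency for loss of cell viability measured by luminescence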
[20] = viability of HCT116 lacking mutant beta-catenin – cell-based, human colon tumor, dose response (AID 1045); assay type: functional;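 also: HCT116 colon tumor cells with beta catenin knocked out; cells exposed to compound for 60 hours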
Large T antigen = Large T antigen (Simian virus 40, UniProt P03070); assay type: functional, Betapolyomavirus macacae;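 also: Confirmatory-stage PubChem screen for compounds that inhibit SV40 T antigen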
Large T antigen, sequence (P03070 whole entry): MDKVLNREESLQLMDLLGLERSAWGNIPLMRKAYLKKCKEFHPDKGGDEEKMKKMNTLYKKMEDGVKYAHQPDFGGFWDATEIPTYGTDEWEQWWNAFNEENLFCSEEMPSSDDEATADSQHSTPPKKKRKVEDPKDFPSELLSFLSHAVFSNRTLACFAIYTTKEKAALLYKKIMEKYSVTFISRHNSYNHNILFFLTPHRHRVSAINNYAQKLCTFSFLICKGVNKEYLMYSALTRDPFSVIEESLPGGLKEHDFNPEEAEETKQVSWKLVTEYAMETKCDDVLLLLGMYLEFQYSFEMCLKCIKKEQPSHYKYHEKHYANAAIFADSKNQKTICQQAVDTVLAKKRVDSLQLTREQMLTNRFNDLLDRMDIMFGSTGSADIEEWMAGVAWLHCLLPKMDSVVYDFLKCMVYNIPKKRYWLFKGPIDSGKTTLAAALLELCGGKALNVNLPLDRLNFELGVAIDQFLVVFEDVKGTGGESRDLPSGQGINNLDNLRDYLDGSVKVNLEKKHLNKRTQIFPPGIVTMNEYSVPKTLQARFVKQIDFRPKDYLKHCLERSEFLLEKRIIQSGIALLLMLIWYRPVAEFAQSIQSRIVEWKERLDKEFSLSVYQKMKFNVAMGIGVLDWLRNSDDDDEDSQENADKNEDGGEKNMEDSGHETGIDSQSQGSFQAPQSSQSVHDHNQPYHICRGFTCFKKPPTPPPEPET

Sphingosine 1-phosphate receptor 4, sequence (O95977 whole entry): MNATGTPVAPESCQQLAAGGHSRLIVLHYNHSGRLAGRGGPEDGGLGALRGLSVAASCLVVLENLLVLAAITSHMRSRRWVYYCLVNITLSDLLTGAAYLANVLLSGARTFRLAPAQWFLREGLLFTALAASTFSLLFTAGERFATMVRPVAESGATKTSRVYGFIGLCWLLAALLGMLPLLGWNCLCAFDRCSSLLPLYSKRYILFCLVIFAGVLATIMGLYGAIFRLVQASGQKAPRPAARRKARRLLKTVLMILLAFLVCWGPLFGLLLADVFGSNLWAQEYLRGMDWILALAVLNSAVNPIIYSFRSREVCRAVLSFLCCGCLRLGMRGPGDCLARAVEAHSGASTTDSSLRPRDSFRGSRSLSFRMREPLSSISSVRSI

## C=CCn1c(=O)c(C#N)cc2c(=O)n3ccccc3nc21
[1]
  EC50: 6.15 µM (active)
Estrogen receptor
  IC50: 44.7 µM (not active)
Estrogen receptor beta [2]
  IC50: < 0.023 µM (not active)
[3]
  EC50: 24.6 µM (inactive)
[4]
  EC50: 64.4 µM (not active)
Estrogen receptor beta [5]
  IC50: 21.1 µM (active)

## O=C(Nc1ccc2oc(=O)ccc2c1)c1cc2ccccc2o1
[6]
  EC50: 0.579 µM (active)
[7]
  EC50: 0.304 µM (active)
[8]
  EC50: < 0.1 µM (active)
H4
  EC50: > 120 µM (not active)
[9]
  EC50: 0.317 µM (active)

## COc1cc(C(=O)Nc2nccs2)ccc1OCc1c(C)noc1C
[10]
  IC50: > 31 µM (not active)

## Cc1cccc(NC2=Nc3ccccc3N3C2=Nc2c(c(C)nn2-c2ccccc2)C3c2ccc(O)c(O)c2)c1 (stereo not drawn)
[11]
  IC50: 4.37 µM (active)
Streptokinase A
  EC50: > 150 µM (not active)
[12]
  EC50: 1.54 µM (active)
Streptococcus
  EC50: 3.2 µM (active)
[13]
  CC50: 17.4 µM (active)
[14]
  EC50: 46.4 µM (active)
[15]
  EC50: 28.3 µM (active)

## O=C1Nc2ccccc2/C1=C1/Nc2ccc(Br)cc2/C1=N\O
Danio rerio
  IC50: > 10 µM (not active)

## O=C(O)c1ccccc1C(=O)NNc1ccc(Cl)cc1Cl
[16]
  IC50: > 100 µM (active)

## CC1=C/C(=N\OS(=O)(=O)c2ccccc2)C(C(C)C)=CC1=O
[17]
  IC50: 6.04 µM (active)
Galanin receptor type 2
  EC50: > 55.7 µM (not active)
INS1
  AC50: 3.88 µM (active)
[18]
  AC50: 0.751 µM (active)
[19]
  EC50: 2.93 µM (active)
[20]
  EC50: 3.13 µM (active)
Large T antigen
  IC50: 48.2 µM (active)
